Measurements published in patent publication US10617748B2, “Immunogenic control of tumours and tumour cells” (LIFE SCIENCES RESEARCH PARTNERS VZW, priority 2008, dated 2020).
Peptide text beside a SMILES is read from it.

Experiments:
[1] = tested on: APCs presenting the natural or modified Epstein-Barr LMP2 T-cell epitope; experiment: Cytotoxic CD4+ T cells elicited by in vivo immunisation; apoptosis (annexin V, Facs) of peptide-loaded APC in co-culture, Epstein-Barr LMP2 epitope; design: species or system BALB/c mice; conditions: 25 μg peptide, 3 footpath injections in CFA/IFA; splenic CD4+ T cells co-cultured 24 h with APC loaded with SEQ ID NO:7 or SEQ ID NO:8 (5 μg/mL)
Method: The sequence of the peptide corresponds to amino acids 167 to 175 of LMP2, namely: VASSYAAAQ (SEQ ID NO:7).
Spleen adherent cells prepared from naïve BALB/c mice are used as antigen-presenting cells (APC).
(§1) Finally, cells are analysed by Facs analysis.

[2] = tested on: APCs presenting the natural or modified survivin T-cell epitope; experiment: Cytotoxic CD4+ T cells elicited by in vivo immunisation; apoptosis (annexin V, Facs) of peptide-loaded APC in co-culture, survivin epitope; design: species or system C57BI/6 mice; conditions: 25 μg peptide, 3 footpath injections in CFA/IFA; splenic CD4+ T cells co-cultured 24 h with APC loaded with SEQ ID NO:5 or SEQ ID NO:6 (5 μg/mL)
Method: The sequence of the peptide corresponds to amino acids 61 to 69 of survivin, namely: FKELEGWEP (SEQ ID NO:5).
as §1

[3] = tested on: APCs presenting the natural or modified MAGE-3 T-cell epitope; experiment: Cytotoxic CD4+ T cells elicited by in vivo immunisation; apoptosis (annexin V, Facs) of peptide-loaded APC in co-culture, MAGE-3 epitope; design: species or system C57BI/6 mice; conditions: 25 μg peptide, 3 footpath injections in CFA/IFA; splenic CD4+ T cells co-cultured 24 h with APC loaded with SEQ ID NO:1 or SEQ ID NO:2 (5 μg/mL)
Method: The sequence of the (natural) T-cell epitope corresponds to amino acids 258 to 266 of MAGE-3, namely: YRQVPGSDP (SEQ ID NO:1).
as §1

CC(C)[C@H](NC(=O)[C@H](CS)NC(=O)CNC(=O)[C@H](Cc1c[nH]cn1)NC(=O)[C@@H](N)CS)C(=O)N[C@@H](C)C(=O)N[C@@H](CO)C(=O)N[C@@H](CO)C(=O)N[C@@H](Cc1ccc(O)cc1)C(=O)N[C@@H](C)C(=O)N[C@@H](C)C(=O)N[C@@H](C)C(=O)N[C@@H](CCC(N)=O)C(=O)O [SEQ ID NO:8, CHGCVASSYAAAQ] (H-CHGCVASSYAAAQ-OH)
elicitation of CD4+ T cells with cytotoxic properties towards APCs [1]: can elicit CD4+ T cells with cytotoxic properties

CC(C)C[C@H](NC(=O)[C@H](CCC(=O)O)NC(=O)[C@H](CCCCN)NC(=O)[C@H](Cc1ccccc1)NC(=O)[C@H](CS)NC(=O)CNC(=O)[C@H](Cc1c[nH]cn1)NC(=O)[C@@H](N)CS)C(=O)N[C@@H](CCC(=O)O)C(=O)NCC(=O)N[C@@H](Cc1c[nH]c2ccccc12)C(=O)N[C@@H](CCC(=O)O)C(=O)N1CCC[C@H]1C(=O)O [SEQ ID NO:6, CHGCFKELEGWEP] (H-CHGCFKELEGWEP-OH)
elicitation of CD4+ T cells with cytotoxic properties towards APCs [2]: can elicit CD4+ T cells with cytotoxic properties

CC(C)[C@H](NC(=O)[C@H](CCC(N)=O)NC(=O)[C@H](CCCNC(=N)N)NC(=O)[C@H](Cc1ccc(O)cc1)NC(=O)[C@H](CS)NC(=O)CNC(=O)[C@H](Cc1c[nH]cn1)NC(=O)[C@@H](N)CS)C(=O)N1CCC[C@H]1C(=O)NCC(=O)N[C@@H](CO)C(=O)N[C@@H](CC(=O)O)C(=O)N1CCC[C@H]1C(=O)O [SEQ ID NO:2, CHGCYRQVPGSDP] (H-CHGCYRQVPGSDP-OH)
elicitation of CD4+ T cells with cytotoxic properties towards APCs [3]: can elicit CD4+ T cells with cytotoxic properties
